In patent US20260226048A1, “MULTI-CYCLIC IRAK AND FLT3 INHIBITING COMPOUNDS AND USES THEREOF” (CHILDREN'S HOSPITAL MEDICAL CENTER, priority 2023, published 2026):

Assays:
[1] = molecular target: T1, FLT3 (Homo sapiens, UniProt P36888); assay: RBC HotSpot Kinase Assay, FLT3; type: biochemical; set-up: purchased Reaction Biology (RBC HotSpot); details: isolated kinase enzyme, 33P-ATP, P81 filter-binding
T1 sequence (P36888 27-993): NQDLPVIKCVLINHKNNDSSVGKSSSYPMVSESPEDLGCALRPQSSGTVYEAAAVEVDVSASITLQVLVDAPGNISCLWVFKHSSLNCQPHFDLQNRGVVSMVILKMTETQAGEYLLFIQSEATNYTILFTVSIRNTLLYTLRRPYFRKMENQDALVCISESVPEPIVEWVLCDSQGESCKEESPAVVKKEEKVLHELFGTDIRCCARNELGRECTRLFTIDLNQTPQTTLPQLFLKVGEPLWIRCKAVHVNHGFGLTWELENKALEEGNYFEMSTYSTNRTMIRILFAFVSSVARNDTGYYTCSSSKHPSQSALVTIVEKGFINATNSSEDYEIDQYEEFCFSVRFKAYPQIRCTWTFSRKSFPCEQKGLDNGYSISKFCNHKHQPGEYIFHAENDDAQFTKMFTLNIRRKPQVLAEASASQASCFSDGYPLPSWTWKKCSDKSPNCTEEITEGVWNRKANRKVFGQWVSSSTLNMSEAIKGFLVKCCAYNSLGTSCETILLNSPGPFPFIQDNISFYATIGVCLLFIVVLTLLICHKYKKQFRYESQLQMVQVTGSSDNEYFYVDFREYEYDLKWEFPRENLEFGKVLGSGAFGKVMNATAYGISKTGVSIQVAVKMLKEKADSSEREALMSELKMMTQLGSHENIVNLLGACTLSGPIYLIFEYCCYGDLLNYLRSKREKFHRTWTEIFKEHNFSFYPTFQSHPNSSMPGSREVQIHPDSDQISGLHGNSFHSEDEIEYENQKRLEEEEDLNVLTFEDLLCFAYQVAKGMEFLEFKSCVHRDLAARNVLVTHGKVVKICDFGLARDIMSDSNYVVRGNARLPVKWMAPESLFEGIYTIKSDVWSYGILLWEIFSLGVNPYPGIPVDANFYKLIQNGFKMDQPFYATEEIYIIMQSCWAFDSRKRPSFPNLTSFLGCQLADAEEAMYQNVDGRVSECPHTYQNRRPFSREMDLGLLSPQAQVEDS
Text: (§1) This assay uses the isolated kinase enzyme. […] Unlike kinase binding assays that measure competition for ATP, the HotSpot Kinase Assay is a functional assay that measures catalytic activity; as such it measures relative functional potency regardless of the mechanism of enzyme inhibition. This assay uses the form of the various enzymes that are easiest to express, which may not necessarily be the form of the enzyme that exist in the cell. (Sometimes the carboxy terminus has been truncated to aid in expression, or, if it is a receptor kinase, the enzyme itself is isolated from the other parts of the receptor that are involved in regulating kinase activity.)
(§2) The reagent used was as follows: Base Reaction buffer; 20 mM Hepes (pH 7.5), 10 mM MgCl2, 1 mM EGTA, 0.01% Brij35, 0.02 mg/ml BSA, 0.1 mM Na3VO4, 2 mM DTT, 1% DMSO. Required cofactors were added individually to each kinase reaction.

[2] = molecular target: T2, IRAK1 (Homo sapiens, UniProt P51617); assay: RBC HotSpot Kinase Assay, IRAK1; type: biochemical; details: isolated kinase enzyme, 33P-ATP, P81 filter-binding
T2 construct: purchased Reaction Biology (RBC HotSpot)
Text: as §1, §2

[3] = molecular target: T3, IRAK4 (Homo sapiens, UniProt Q9NWZ3); assay: RBC HotSpot Kinase Assay, IRAK4; type: biochemical; set-up: purchased Reaction Biology (RBC HotSpot); details: isolated kinase enzyme, 33P-ATP, P81 filter-binding
T3 sequence (Q9NWZ3 1-460): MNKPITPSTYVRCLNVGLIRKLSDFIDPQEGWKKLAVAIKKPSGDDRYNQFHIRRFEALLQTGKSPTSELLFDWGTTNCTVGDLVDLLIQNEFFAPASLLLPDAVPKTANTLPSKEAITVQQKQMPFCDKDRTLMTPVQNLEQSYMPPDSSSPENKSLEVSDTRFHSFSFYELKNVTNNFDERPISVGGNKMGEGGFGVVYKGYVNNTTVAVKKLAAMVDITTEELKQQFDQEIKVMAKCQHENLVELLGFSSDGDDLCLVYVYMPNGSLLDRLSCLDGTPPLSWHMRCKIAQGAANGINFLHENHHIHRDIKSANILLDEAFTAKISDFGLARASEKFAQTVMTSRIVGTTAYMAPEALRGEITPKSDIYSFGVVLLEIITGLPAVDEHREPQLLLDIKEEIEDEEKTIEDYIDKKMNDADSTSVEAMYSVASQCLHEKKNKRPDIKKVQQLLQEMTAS
Text: as §1, with “enzyme. This assay is very useful for determining competition of the inhibitor for ATP and/or substrates and for measuring the kinetics of enzyme inhibition.” for “enzyme.”
as §2
The reaction procedure was as follows: • 1) Substrates were prepared in freshly prepared Reaction Buffer. • 2) Any required cofactors were delivered to the substrate solution above. • 3) Kinase was delivered into the substrate solution and gently mixed. • 4) Compounds were delivered in 1000A DM into the kinase reaction mixture by Acoustic technology (Echo550; nanoliter range), followed by incubation for 20 min at room temp. • 5) 33P-ATP was delivered into the reaction mixture to initiate the reaction. • 6) The mixture was incubated for 2 hours at room temperature. • 7) Kinase activity was detected by P81 filter-binding method.

[4] = tested on: MOLM14 D835Y cells; assay: MOLM14 D835Y cell viability assay (Cell Titer Glo); type: cell-based; details: Homo sapiens, MOLM-14, 48 h, cell viability, Cell Titer Glo, 48 hours; read-out: MOLM14 D835Y IC50
Procedure: Both cell lines have activated FLT3 receptors, each of which carry additional resistance mutations in the kinase domain (D835Y and F691L, respectively).
For viability/cytotoxicity assessments, cells were seeded into 1536-well white polystyrene tissue culture-treated Greiner plates using a Multidrop Combi dispenser (ThermoFisher), in final volume 5 μL of growth media per well, at a density of 1000 cells per well. […] Plates were incubated for 48 hours at standard incubator conditions covered by a stainless steel gasketed lid to prevent evaporation. 48 hours post compound addition, 3 μL of Cell Titer Glo (Promega) were added to each well and plates were incubated at room temperature for 15 minutes with the stainless-steel lid in place. Luminescence readings were taken using a Viewlux imager (PerkinElmer) with a 2 second exposure time per plate.

T2 sequence (P51617 whole entry): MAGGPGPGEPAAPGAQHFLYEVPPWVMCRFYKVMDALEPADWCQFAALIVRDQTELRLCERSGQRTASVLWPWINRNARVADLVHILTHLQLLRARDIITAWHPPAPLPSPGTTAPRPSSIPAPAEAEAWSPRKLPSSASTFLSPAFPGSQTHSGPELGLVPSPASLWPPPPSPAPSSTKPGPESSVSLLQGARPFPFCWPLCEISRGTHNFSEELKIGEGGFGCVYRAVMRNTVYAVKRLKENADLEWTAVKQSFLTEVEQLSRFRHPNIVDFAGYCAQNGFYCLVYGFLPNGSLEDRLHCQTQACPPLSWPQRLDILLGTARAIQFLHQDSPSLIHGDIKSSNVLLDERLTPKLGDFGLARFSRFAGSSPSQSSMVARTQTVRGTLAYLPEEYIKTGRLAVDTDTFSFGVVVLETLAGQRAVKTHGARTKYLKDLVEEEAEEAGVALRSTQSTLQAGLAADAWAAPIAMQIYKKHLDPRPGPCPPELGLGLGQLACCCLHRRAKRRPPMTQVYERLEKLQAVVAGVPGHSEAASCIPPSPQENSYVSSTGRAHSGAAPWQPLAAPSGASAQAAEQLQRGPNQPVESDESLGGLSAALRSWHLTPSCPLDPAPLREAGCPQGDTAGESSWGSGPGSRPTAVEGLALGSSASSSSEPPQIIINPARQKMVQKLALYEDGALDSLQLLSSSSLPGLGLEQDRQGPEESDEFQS

SMILES | IC50 [1] [nM] | IC50 [2] [nM] | IC50 [3] [nM] | IC50 [4] [nM]
FC(F)COc1cc2ncc(-c3cncc(N[C@H]4CNC[C@@H]4F)n3)n2nc1C1CC1 [Compound 8a, 6-(6-cyclopropyl-7-(2,2-difluoroethoxy)imidazo[1,2-b]pyridazin-3-yl)-N-((3S,4S)-4-fluoropyrrolidin-3-yl)pyrazin-2-amine] | < 0.5 | 34 | 2 | 91
FC(F)COc1cc2ncc(-c3cncc(N[C@@H]4CCCNC4)n3)n2nc1C1CC1 [Compound 9a, (R)-6-(6-cyclopropyl-7-(2,2-difluoroethoxy)imidazo[1,2-b]pyridazin-3-yl)-N-(piperidin-3-yl)pyrazin-2-amine] | < 0.5 | 199 | 11 | 41
F[C@H]1CNC[C@@H]1Nc1nccc(-c2cnc3cc(OC4CC4)c(C4CC4)nn23)n1 [Compound 10a, 4-(7-cyclopropoxy-6-cyclopropylimidazo[1,2-b]pyridazin-3-yl)-N-((3S,4S)-4-fluoropyrrolidin-3-yl)pyrimidin-2-amine] | < 0.5 | 26 | 3 | 91
COc1cc2ncc(-c3ccnc(N[C@H]4CNC[C@@H]4F)n3)n2nc1N1CC(F)(F)C1 [Compound 16a, 4-(6-(3,3-difluoroazetidin-1-yl)-7-methoxyimidazo[1,2-b]pyridazin-3-yl)-N-((3S,4S)-4-fluoropyrrolidin-3-yl)pyrimidin-2-amine] | < 0.5 | 245 | 8 | 182
COc1cc2ncc(-c3ccnc(N[C@@H]4CCCNC4)n3)n2nc1N1CC(F)(F)C1 [Compound 17a, (R)-4-(6-(3,3-difluoroazetidin-1-yl)-7-methoxyimidazo[1,2-b]pyridazin-3-yl)-N-(piperidin-3-yl)pyrimidin-2-amine] | 4 | 1420 | 215 | 182
COc1cc2ncc(-c3ccnc(N[C@H]4CNCC[C@@H]4F)n3)n2nc1N1CC(F)(F)C1 [Compound 18a, 4-(6-(3,3-difluoroazetidin-1-yl)-7-methoxyimidazo[1,2-b]pyridazin-3-yl)-N-((3S,4S)-4-fluoropiperidin-3-yl)pyrimidin-2-amine] | < 0.5 | 226 | 15 | 51
COc1cc2ncc(-c3ccnc(N[C@H]4CNC[C@@H]4F)n3)n2nc1C1CC(F)(F)C1 [Compound 20a, 4-(6-(3,3-difluorocyclobutyl)-7-methoxyimidazo[1,2-b]pyridazin-3-yl)-N-((3S,4S)-4-fluoropyrrolidin-3-yl)pyrimidin-2-amine] | 0.7 | 170 | 12 | 182
COc1cc2ncc(-c3ccnc(N[C@@H]4CCCNC4)n3)n2nc1C1CC(F)(F)C1 [Compound 21a, (R)-4-(6-(3,3-difluorocyclobutyl)-7-methoxyimidazo[1,2-b]pyridazin-3-yl)-N-(piperidin-3-yl)pyrimidin-2-amine] | < 0.5 | 236 | 81 | 102
COc1cc2ncc(-c3ccnc(N[C@H]4CNCC[C@@H]4F)n3)n2nc1C(C)(C)O [Compound 40a, 2-(3-(2-(((3S,4S)-4-fluoropiperidin-3-yl)amino)pyrimidin-4-yl)-7-methoxyimidazo[1,2-b]pyridazin-6-yl)propan-2-ol] | 3 | 1130 | 76 | 115
COc1cc2ncc(-c3ccnc(N[C@H]4CNC[C@@H]4F)n3)n2nc1C(C)(C)O [Compound 41a, 2-(3-(2-(((3S,4S)-4-fluoropyrrolidin-3-yl)amino)pyrimidin-4-yl)-7-methoxyimidazo[1,2-b]pyridazin-6-yl)propan-2-ol] | 1 | 1590 | 36 | 289
COc1cc2ncc(-c3ccnc(N[C@@H]4CCCNC4)n3)n2nc1C(C)(C)O [Compound 42a, (R)-2-(7-methoxy-3-(2-(piperidin-3-ylamino)pyrimidin-4-yl)imidazo[1,2-b]pyridazin-6-yl)propan-2-ol] | 10 | 3250 | 496 | 363
COc1cc2ncc(-c3nc(N[C@@H]4CCCNC4)ncc3F)n2nc1C(C)(C)O [Compound 43a, (R)-2-(3-(5-fluoro-2-(piperidin-3-ylamino)pyrimidin-4-yl)-7-methoxyimidazo[1,2-b]pyridazin-6-yl)propan-2-ol] | 1 | 50 | 29 | 23
COc1cc2ncc(-c3nc(N[C@H]4CNC[C@@H]4F)ncc3F)n2nc1C(C)(C)O [Compound 44a, 2-(3-(5-fluoro-2-(((3S,4S)-4-fluoropyrrolidin-3-yl)amino)pyrimidin-4-yl)-7-methoxyimidazo[1,2-b]pyridazin-6-yl)propan-2-ol] | < 0.5 | 32 | 4 | 51
CC(C)(O)c1ccc2ncc(-c3nc(N[C@H]4CNC[C@@H]4F)ncc3F)n2c1 [Compound 47a, 2-(3-(5-fluoro-2-(((3S,4S)-4-fluoropyrrolidin-3-yl)amino)pyrimidin-4-yl)imidazo[1,2-a]pyridin-6-yl)propan-2-ol] | < 0.5 | 13 | 1 | 46
COc1cc2ncc(-c3nc(N[C@H]4CNC[C@@H]4F)ncc3F)n2nc1C1CC(F)(F)C1 [Compound 50a, 4-(6-(3,3-difluorocyclobutyl)-7-methoxyimidazo[1,2-b]pyridazin-3-yl)-5-fluoro-N-((3S,4S)-4-fluoropyrrolidin-3-yl)pyrimidin-2-amine] | < 0.5 | 3 | 0.8 | 29
